Reference: PubChem BioAssay AID2060894 (Molecular Pharmacology Branch, DTP, NCI, 2025)
Values belong to the compound of their own block, whether it stands above or below them.

Tested on: K12877-001-R-J1-PDC complex spheroid viability
Test: Anticancer human tumor K12877-001-R-J1-PDC patient-derived lung adenocarcinoma cell line growth inhibition [RAS]
Conditions: for viability, T/C: stronger effect = lower value
In short: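 Tumour cells grown as complex spheroids with HUVEC endothelial cells and mesenchymal stem cells, treated with RAS pathway inhibitor combinations. Each agent spans half-log steps from near clinical Cmax, or 10 microM where Cmax is unknown.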
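Also: spheroids exposed to agents for one week before readout.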
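For viability, T/C in this document: tumour cells co-cultured with HUVEC and mesenchymal stem cells in spheroids.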

IC50 (curve of first compound, second compound 0.000949 µM): 45 nM
IC50 (curve of first compound, second compound 0.003 µM): 45.9 nM
IC50 (curve of first compound, second compound 0.00949 µM): 27.4 nM
IC50 (curve of first compound, second compound 0.03 µM): 32.2 nM
IC50 (curve of first compound, second compound 0.0949 µM): 30.8 nM
IC50 (curve of first compound, second compound 0.3 µM): 37.6 nM
Structure (SMILES): CC1(C)CCC(Nc2ncc(C(F)(F)F)c(-c3c[nH]c4c(P(C)(C)=O)c(C#N)ccc34)n2)CN1 (stereo not given) + CCn1c(-c2cc(N3CCN(C)CC3)cnc2C(C)OC)c2c3cc(ccc31)-c1csc(n1)CC(NC(=O)C1CC1C)C(=O)N1CCCC(N1)C(=O)OCC(C)(C)C2
viability, T/C (second compound 0.000949 µM, first compound 0.000949 µM): 84.8%
viability, T/C (second compound 0.000949 µM, first compound 0.003 µM): 77.5%
viability, T/C (second compound 0.000949 µM, first compound 0.00949 µM): 78.1%
viability, T/C (second compound 0.000949 µM, first compound 0.03 µM): 57.4%
viability, T/C (second compound 0.000949 µM, first compound 0.0949 µM): 35.8%
viability, T/C (second compound 0.000949 µM, first compound 0.3 µM): 28%
viability, T/C (second compound 0.003 µM, first compound 0.000949 µM): 73.1%
viability, T/C (second compound 0.003 µM, first compound 0.003 µM): 66.7%
viability, T/C (second compound 0.003 µM, first compound 0.00949 µM): 65.3%
viability, T/C (second compound 0.003 µM, first compound 0.03 µM): 58%
viability, T/C (second compound 0.003 µM, first compound 0.0949 µM): 37.9%
viability, T/C (second compound 0.003 µM, first compound 0.3 µM): 29.1%
viability, T/C (second compound 0.00949 µM, first compound 0.000949 µM): 68.2%
viability, T/C (second compound 0.00949 µM, first compound 0.003 µM): 71.7%
viability, T/C (second compound 0.00949 µM, first compound 0.00949 µM): 61.5%
viability, T/C (second compound 0.00949 µM, first compound 0.03 µM): 50.7%
viability, T/C (second compound 0.00949 µM, first compound 0.0949 µM): 31.8%
viability, T/C (second compound 0.00949 µM, first compound 0.3 µM): 32.1%
viability, T/C (second compound 0.03 µM, first compound 0.000949 µM): 76%
viability, T/C (second compound 0.03 µM, first compound 0.003 µM): 70.6%
viability, T/C (second compound 0.03 µM, first compound 0.00949 µM): 72.4%
viability, T/C (second compound 0.03 µM, first compound 0.03 µM): 50.8%
viability, T/C (second compound 0.03 µM, first compound 0.0949 µM): 37%
viability, T/C (second compound 0.03 µM, first compound 0.3 µM): 36.2%
viability, T/C (second compound 0.0949 µM, first compound 0.000949 µM): 111%
viability, T/C (second compound 0.0949 µM, first compound 0.003 µM): 113%
viability, T/C (second compound 0.0949 µM, first compound 0.00949 µM): 88.6%
viability, T/C (second compound 0.0949 µM, first compound 0.03 µM): 50.5%
viability, T/C (second compound 0.0949 µM, first compound 0.0949 µM): 39.5%
viability, T/C (second compound 0.0949 µM, first compound 0.3 µM): 33.5%
viability, T/C (second compound 0.3 µM, first compound 0.000949 µM): 97.8%
viability, T/C (second compound 0.3 µM, first compound 0.003 µM): 98.7%
viability, T/C (second compound 0.3 µM, first compound 0.00949 µM): 72.6%
viability, T/C (second compound 0.3 µM, first compound 0.03 µM): 53.8%
viability, T/C (second compound 0.3 µM, first compound 0.0949 µM): 42.2%
viability, T/C (second compound 0.3 µM, first compound 0.3 µM): 37%

IC50 (compound alone, run of 09/09/2024): > 1000 nM
IC50 (curve of compound): > 1000 nM
Structure (SMILES): C=CC(=O)N1CCN(c2nc(OCC3CCCN3C)nc3c(F)c(-c4nc(N)cc(C)c4C(F)(F)F)c(Cl)cc23)C(C)C1 (stereo not given)
viability, T/C (compound 0.00316 µM): 99.2% [middle of 12 runs]
viability, T/C (compound 0.1 µM): 87.8% [middle of 12 runs]
viability, T/C (compound 0.316 µM): 86% [middle of 12 runs]

IC50 (curve of compound): 5.02 nM [middle of 4 runs]
Structure (SMILES): CCc1c2c(nc3ccc(O)cc13)-c1cc3c(c(=O)n1C2)COC(=O)[C@]3(O)CC
viability, T/C (compound 0.000949 µM): 99.2% [middle of 4 runs]
viability, T/C (compound 0.00949 µM): 14% [middle of 4 runs]
viability, T/C (compound 0.03 µM): 5.09% [middle of 4 runs]
viability, T/C (compound 0.0949 µM): 3.24% [middle of 4 runs]
viability, T/C (compound 0.3 µM): 1.19% [middle of 4 runs]

IC50 (curve of first compound, second compound 0.00316 µM): 32.5 nM
IC50 (curve of first compound, second compound 0.01 µM): 76 nM
IC50 (curve of first compound, second compound 0.0316 µM): 46.6 nM
IC50 (curve of first compound, second compound 0.1 µM): 38.5 nM
IC50 (curve of first compound, second compound 0.316 µM): 59 nM
IC50 (curve of first compound, second compound 1 µM): 98 nM
Structure (SMILES): CC1(C)CCC(Nc2ncc(C(F)(F)F)c(-c3c[nH]c4c(P(C)(C)=O)c(C#N)ccc34)n2)CN1 (stereo not given) + C=CC(=O)N1CCN(c2nc(OCC3CCCN3C)nc3c(F)c(-c4nc(N)cc(C)c4C(F)(F)F)c(Cl)cc23)C(C)C1
viability, T/C (second compound 0.00316 µM, first compound 0.000949 µM): 107%
viability, T/C (second compound 0.00316 µM, first compound 0.003 µM): 85.1%
viability, T/C (second compound 0.00316 µM, first compound 0.00949 µM): 74.4%
viability, T/C (second compound 0.00316 µM, first compound 0.03 µM): 53.2%
viability, T/C (second compound 0.00316 µM, first compound 0.0949 µM): 30.1%
viability, T/C (second compound 0.00316 µM, first compound 0.3 µM): 36.3%
viability, T/C (second compound 0.01 µM, first compound 0.000949 µM): 92.3%
viability, T/C (second compound 0.01 µM, first compound 0.003 µM): 78.3%
viability, T/C (second compound 0.01 µM, first compound 0.00949 µM): 62.5%
viability, T/C (second compound 0.01 µM, first compound 0.03 µM): 59.1%
viability, T/C (second compound 0.01 µM, first compound 0.0949 µM): 47.4%
viability, T/C (second compound 0.01 µM, first compound 0.3 µM): 43.4%
viability, T/C (second compound 0.0316 µM, first compound 0.000949 µM): 87%
viability, T/C (second compound 0.0316 µM, first compound 0.003 µM): 73.6%
viability, T/C (second compound 0.0316 µM, first compound 0.00949 µM): 63.9%
viability, T/C (second compound 0.0316 µM, first compound 0.03 µM): 57.2%
viability, T/C (second compound 0.0316 µM, first compound 0.0949 µM): 42%
viability, T/C (second compound 0.0316 µM, first compound 0.3 µM): 33.1%
viability, T/C (second compound 0.1 µM, first compound 0.000949 µM): 80.1%
viability, T/C (second compound 0.1 µM, first compound 0.003 µM): 76.8%
viability, T/C (second compound 0.1 µM, first compound 0.00949 µM): 63.8%
viability, T/C (second compound 0.1 µM, first compound 0.03 µM): 52.6%
viability, T/C (second compound 0.1 µM, first compound 0.0949 µM): 41.6%
viability, T/C (second compound 0.1 µM, first compound 0.3 µM): 32.9%
viability, T/C (second compound 0.316 µM, first compound 0.000949 µM): 87.7%
viability, T/C (second compound 0.316 µM, first compound 0.003 µM): 79.6%
viability, T/C (second compound 0.316 µM, first compound 0.00949 µM): 66.2%
viability, T/C (second compound 0.316 µM, first compound 0.03 µM): 54.8%
viability, T/C (second compound 0.316 µM, first compound 0.0949 µM): 48.1%
viability, T/C (second compound 0.316 µM, first compound 0.3 µM): 35.1%
viability, T/C (second compound 1 µM, first compound 0.000949 µM): 85.6%
viability, T/C (second compound 1 µM, first compound 0.003 µM): 77.6%
viability, T/C (second compound 1 µM, first compound 0.00949 µM): 70.5%
viability, T/C (second compound 1 µM, first compound 0.03 µM): 62.8%
viability, T/C (second compound 1 µM, first compound 0.0949 µM): 49.7%
viability, T/C (second compound 1 µM, first compound 0.3 µM): 38.3%
